Data reported in paper PMC8429736, “Pharmacological characterization of mutant huntingtin aggregate-directed PET imaging tracer candidates” (Scientific Reports, 2021).

Tests used:
R6/2 brain homogenates = assay: RBA with R6/2 brain homogenates; format: binding, mouse; settings: data not shown
Procedure: (§1) For RBA in vitro binding assays, brain tissue was sliced (50 µm), weighed and homogenized in PBS (Gibco, 14190-94), 0.1% BSA with a glass pestle (10 strokes) at a concentration of 12–15 mg wet tissue per mL buffer. The crude homogenate concentration was then adjusted to 10 mg/mL (wet tissue) and stored as single-use aliquots at -80 °C.
(§2) For saturation binding experiments, aggregate lysate preparation and final concentration in the assay, assay buffer, incubation times and plate processing were identical to the competition format. Radioligand was titrated up to 100 nM. Raw cpm were converted into nM using a calibration line of total added radioligand without washing and filtering (spiked onto the filter plate and dried) (e.g., X) and normalized to the concentration of protein (e.g., Y) to finally obtain […] (e.g., X/Y). Specific binding (SB) was calculated as full binding minus full competition (in the presence of excess unlabeled ligand) and a hyperbolic mono-phasic fit was applied using GraphPad Prism to determine Kd and Bmax.

[1] = target: mHTT aggregates in HOM zQ175 HD mouse brain sections; assay: In vitro autoradiography (ARG) saturation binding, HOM zQ175 brain sections; settings: HOM zQ175 12 months, cortex
Procedure: Twenty µm-thick sections were prepared from brains of disease mouse models and WT mice or human post-mortem brain samples by using a cryostat, mounted on superfrost slides and stored at -80 °C for a maximum of 2 weeks. On the day of the experiment, slides were adapted to room temperature for 30 min and then equilibrated by immersion into assay buffer (50 mM Tris–HCl pH 7.4; 120 mM NaCl; 5 mM KCl; 2 mM CaCl2; 1 mM MgCl2) for 20 min at room temperature.
Radioligand solutions were prepared in assay buffer. Optimal radioligand concentrations were determined in advance based on signal-to-background ratio obtained in mouse or human brain tissue. The solutions were mixed in a Coplin jar (Sigma, S5516-6EA) by gently shaking at 175 rpm for 10 min at room temperature. Sections were incubated by immersion into assay buffer containing either only radioligand (total binding or TB) or radioligand plus 10 µM of unlabeled compound (non-specific binding or NSB) for 60 min at room temperature. Afterwards slides were washed three times for 10 min with ice-cold washing buffer (50 mM Tris–HCl (pH 7.4)) at 4 °C and dipped for three seconds in ice-cold distilled water to remove buffer salts. […]

zQ175 brain homogenates = assay: Whole brain homogenate RBA saturation binding, HOM zQ175; design: species or system mouse; settings: HOM zQ175 12 months whole brain homogenate
Procedure: as §1, §2

Q46 aggregates [2] = assay: RBA competition binding against tritiated 3, Q46 aggregates; settings: 0.3 nM tritiated 3 as radioligand; 1 µM aggregates; mean ± SD
Procedure: For the competition assay format, Q46 or Exon1-Q46 aggregates at 1 µM (sample volume 150 µL) were pre-incubated in a 96-well round bottom plate (Corning, #3365) for 20 min with test compounds at room temperature (assay buffer 50 mM Tris–HCl pH 8.0, 150 mM NaCl). […] Radioligand 3 at 0.3 nM was added and incubated for 1 h at 37 °C.
Samples were then transferred onto a 96-well GF/B filter plate (Perkin Elmer, #6005177) using a Filtermate Harvester, aspirated by vacuum and wells washed twice with 200 µL PBS. After drying the filter plates for 1 h at 55 °C the back of the plate was sealed with aluminum cover and 30 µL of scintillation fluid (Perkin Elmer, #6013641) per well was added. The tops of the plates were sealed, and the plates were incubated for 15 min in the dark and counted in a TopCount or MicroBeta2 reader (both Perkin Elmer).
Raw sample data collected as counts per minute (cpm) were normalized towards assay controls: 0% inhibition = radioligand + protein + vehicle, 100% inhibition = radioligand + protein + 1 µM unlabeled ligand. A 4-parameter […] fit was applied to generate IC50 values.

[3] = system: mHTT aggregates in human HD brain sections; assay: ARG, human post-mortem HD frontal cortex sections; format: binding
Q46 aggregates [4] = assay: RBA saturation binding, Q46 aggregates; settings: tritiated compound; mean ± SD
Procedure: For N-terminal tag cleavage, proteins at 30 µM in 2 mL reaction tubes were incubated with 150 µg/mL thrombin (Sigma, T4648) in 50 mM Tris (pH 8.0), 150 mM NaCl, 2 mM CaCl2 for 16 h at 37 °C.
For radioligand binding assays (RBA) (see below) and radiometric filter trap assays (RAFTA) (see below), aggregates were separated by centrifugation (5 min 16,000×g) and resuspended with assay buffer (50 mM Tris pH 8.0, 150 mM NaCl) (see Supplementary Fig. S2B). […]
Samples were then transferred onto a 96-well GF/B filter plate (Perkin Elmer, #6005177) using a Filtermate Harvester, aspirated by vacuum and wells washed twice with 200 µL PBS. […] The tops of the plates were sealed, and the plates were incubated for 15 min in the dark and counted in a TopCount or MicroBeta2 reader (both Perkin Elmer).
For saturation binding experiments, aggregate lysate preparation and final concentration in the assay, assay buffer, incubation times and plate processing were identical to the competition format. […] Specific binding (SB) was calculated as full binding minus full competition (in the presence of excess unlabeled ligand) and a hyperbolic mono-phasic fit was applied using GraphPad Prism to determine Kd and Bmax.

COc1ccc(COc2ccc3oc(-c4ccc(=O)n(C)n4)nc3c2)nc1 [CHDI-180]
binding signal (R6/2 brain homogenates): no appropriate binding signal | Kd [1]: 1.1 nM | ARG Bmax ([1]; per mg tissue): 163.0 fmol/mg | Kd (zQ175 brain homogenates): 2.4 nM | RBA Bmax (zQ175 brain homogenates; per mg tissue): 34.0 fmol/mg | IC50 (Q46 aggregates [2]): 1.2 ± 0.5 nM | NSB in HD brain sections ([3]; 1 nM radioligand plus cold compound): below 0.5 fmol/mg tissue | binding to frontal cortical sections from HD donors ([3]; 1 nM radioligand, gray matter): 2.0 ± 0.4 fmol/mg tissue | white matter binding ([3]; 1 nM radioligand, human frontal cortex sections): ≤ 0.5 fmol/mg tissue | Kd (Q46 aggregates [4]): 7.7 ± 3.3 nM
